Reference: patent US11613552B2, “Pharmaceutical agents, compositions, and methods relating thereto” (Alltech, Inc., priority 2017, dated 2023)

Experiments:
[1] = test system: Glut4; assay: QRT-PCR of Glut4 mRNA in AML-12 cells; format: cell-based, mouse
Procedure: For RNA analysis of basal Glut4 (Slc2a4) expression (in the absence of diabetic stimuli 8-CPT/Dex), amplified AML-12 cells were cultured on 24-well (1×10^5 cells/well) plates overnight in 10% FBS ITS- and Dex-free DMEM/F12 media. These cells were washed twice with PBS to remove residual sera and then were incubated with vehicle (0.024% DMSO) or with Compound #43 (300 ppb) in serum-free DMEM/F12 media for 24 hours.
For RNA analysis of Glut4 expression in AML-12 cells cultured under simulated diabetic conditions, amplified AML-12 cells were cultured on 24-well (2×10^5 cells/well) plates in 10% FBS ITS- and Dex-free DMEM/F12 media overnight. Then these cells were washed twice with PBS to remove any potential residual sera and then were serum-starved in plain DMEM/F12 media overnight. These serum-starved AML-12 cells were then incubated with vehicle (0.024% DMSO) or with Compound #43 (300 ppb) in the presence of diabetic stimuli, 0.1 mM 8-CPT (Sigma) and 0.5 μM Dex, in serum-free plain DMEM/F12 media for 6 and 24 hours.
Total liver RNA from saline- or Compound #43-treated Lepr^db/db mice was isolated using a Qiagen RNAeasy RNA isolation kit according to the Manufacturer's protocol. Total RNA from cultured cells was isolated using Trizol (Invitrogen) according to the manufacturer's protocol, and then incubated with DNase I to remove any potential contaminating genomic DNA. […]

[2] = test system: G6pc; assay: QRT-PCR of 8-CPT/Dex-induced G6pc expression in AML-12 cells; format: cell-based, mouse; conditions: for G6pc mRNA level normalized by non-8-CPT/Dex-treated group: with 8-CPT/Dex (8-CPT/Dex alone 41.5)
Procedure: For RNA analysis of the diabetic stimuli-induced G6pc expression, the AML-12 cells were pretreated without or with Compound #43 (150 or 300 ppb) in 10% FBS but ITS/Dex-free DMEM/F12 media for 24 hr. Then these cells were washed twice with PBS remove any residual sera, and incubated with Compound #43 (150 or 300 ppb) in the presence or absence of insulin (10 or 100 nM), or 0.1 mM 8-CPT (Sigma) and 0.5 μM Dex in serum-free plain DMEM/F12 media for another 6 hours.
Total RNA from saline- or selenium compound-treated Lepr^db/db mice was isolated using a Qiagen RNAeasy RNA isolation kit according to the Manufacturer's protocol. Total RNA from cultured cells was isolated using Trizol (Invitrogen) according to the manufacturer's protocol, and then incubated with DNase I to remove any potential contaminating genomic DNA. RNA samples were subjected to real-time PCR (QRT-PCR) analysis using Applied-Bioscience's RT kit and predesigned Taqman probes (Invitrogen), as described previously (Lan et al EMBO J 2003). Data were normalized by Actin B (Actb) mRNA levels in each sample, and are presented as mean±SEM of 3-5 samples.

[3] = test system: H4IIE cells; assay: Glucose production assay in H4IIE cells; format: cell-based, rat
Procedure: Equal numbers of Human HepG2 or rat H4IIE cells (1-1.5×10^5 cells/well) were seeded on 96 well plates in 10% FBS-containing media for 24 hr. Cells were then washed twice with PBS, and treated with various concentrations of compounds, metformin or insulin in 100 μl of glucose production media (glucose-free, phenol red-free DMEM media supplemented with 20 mM sodium lactate, 2 mM sodium pyruvate and 5 mM HEPES) at 37° C. for 24 hr (H4IIE cells only) or 48 hr (HepG2 cell only). Cells were also incubated with 0.24% DMSO (the maximal volume of DMSO solvent used in the experiments).
After the above treatments, 50 μl of culture media were collected, and subjected to glucose analysis using Molecular Probes Amplex Red glucose assay kit (Cat #A22189) according to the manufacturer's protocol. Cell numbers or viability in the culture plate after the above compound treatments were determined using Promega's CellTiter96® AQueous One Solution Cell Proliferation Assay kits, according to the manufacturer's protocol and instructions. In brief, after removing 50 μl of culture media for glucose assay, cells were incubated with AQueous One solution (25 μl stock solution and 50 μl prewarmed PBS/per well) at 37° C. for 1 hour, and the absorbance of OD490 nm in each sample was determined by the Bio-Tek microplate reader. Cell viability in culture wells were determined by the subtraction of OD490 nm in cultured cells with the OD490 nm in plain culture media (without seeding of cells). Glucose production in the culture cells were obtained by normalizing the glucose concentration in culture media by cell viability in each well. At least 3 samples per each treatment were examined for the above analysis. Data are presented as Mean±SEM of those samples. Experiments were repeated at least twice.
The half maximal inhibitory concentration (IC50 values) of Compound #43 or metformin for the inhibition of glucose production were determined using the ED50 Plus v1.0 online software.

Compound | effect on Glut4 mRNA expression ([1]; 300 ppb with 8-CPT/Dex, 6 and 24 hours (FIG. 16B)) | increase of basal Glut4 mRNA expression ([1]; 300 ppb, serum-free, 24 hours (FIG. 16A)) | reduction of 8-CPT/Dex-induced G6pc expression vs 8-CPT/Dex group ([2]; 150 and 300 ppb alone) [%] | effect on 8-CPT/Dex-induced G6pc expression ([2]; 150 or 300 ppb co-treated with 100 nM insulin) | G6pc mRNA level normalized by non-8-CPT/Dex-treated group ([2]; 150 ppb, Column #5 FIG. 11) | G6pc mRNA level normalized by non-8-CPT/Dex-treated group ([2]; 300 ppb, Column #8 FIG. 11) | IC50 ([3]; Rattus norvegicus, H4IIE, 24 h, read-out: IC50 (inhibition of glucose production)) [µM] | potency relative to metformin in inhibition of glucose production ([3]; cultured rat liver cells) | effect on glucose production in H4IIE cells ([3]; serum-free, 24 hr (FIG. 2)) | effect on 8-CPT/Dex-induced G6pc expression ([2]; 10 nM and 100 nM insulin, 6 hr)
C[Se]C[C@H]1O[C@@H](n2cnc3c(N)ncnc32)C(OC(C)=O)C1OC(C)=O (stereo partly shown) [Compound #43, Adenosine, 5′-Se-methyl-5′-selino-, 2′,3′-diacetate] | significant increase in Glut4 mRNA expression | about 2.1 fold | ~68 | almost completely abolished 8-CPT/Dex-induced G6pc expression | 13 | 13.5 | 17.8 | at least 15 times | dose-dependent decrease in glucose production | –
insulin: insulin purchased from Sigma, positive control | – | – | – | – | – | – | – | – | – | significantly decreased 8-CPT/Dex-induced G6pc expression
